Results published in patent US20150258059A1, “ANTIMICROBIAL AND RADIOPROTECTIVE COMPOUNDS” (BioDiem, Ltd, priority 2001, published 2015).
≈ marks a conversion by molar mass, not a printed value. Read-outs that look alike come from different tables or passages of the source.

Assays:
[1] = tested on: Enterobacter aerogenes B-687; assay: Sensitivity of strains: suppression of growth; type: cell-based; conditions: Compound (1) 1.0%; antibiotics disc method
Shigella sonnei B-720 = assay: Sensitivity of strains: suppression of growth; type: cell-based; conditions: Compound (1) 1.0%; antibiotics disc method
[2] = tested on: Salmonella paratyphi M-16469; assay: Sensitivity of strains: suppression of growth; type: cell-based; conditions: Compound (1) 1.0%; antibiotics disc method
Acinetobacter B-677 = assay: Sensitivity of strains: suppression of growth; type: cell-based; conditions: Compound (1) 1.0%; antibiotics disc method
[3] = tested on: Neisseria meningitidis M-A72; assay: Sensitivity of strains: suppression of growth; type: cell-based; conditions: Compound (1) 1.0%; antibiotics disc method
[4] = tested on: Staphylococcus aureus M-209; assay: Sensitivity of strains: suppression of growth; type: cell-based; conditions: Compound (1) 1.0%; antibiotics disc method
[5] = tested on: Staphylococcus epidermidis BK-30; assay: Sensitivity of strains: suppression of growth; type: cell-based; conditions: Compound (1) 1.0%; antibiotics disc method
Mycobact tub. H.37RV = assay: Anti-TB effect, serial double dilution in liquid medium; type: cell-based, M tuberculosis; conditions: read-out: Minimal Inhibitory Concentration
[6] = tested on: E. faecalis-clinical isolate 1; assay: microbe, parasite or virus in culture; type: cell-based
Clostridium perfringens = assay: microbe, parasite or virus in culture; type: cell-based; conditions: 48 h
[7] = tested on: Campylobacter jejuni RMIT FF3; assay: NCCLS broth microdilution MIC/MBC; type: cell-based; conditions: Table 9, 48 h
Klebsiella pneumoniae = assay: NCCLS broth microdilution MIC/MBC; type: cell-based; conditions: for MIC: Klebsiella pneumoniae
Salmonella typhimurium [8] = assay: NCCLS broth microdilution MIC/MBC; type: cell-based
[9] = tested on: Pseudomonas aeruginosa ATCC 27853; assay: NCCLS broth microdilution MIC/MBC; type: cell-based; conditions: for MIC: Pseudomonas aeruginosa, ATCC27853, read-out: MIC
Fusarium graminearum [10] = assay: microbe, parasite or virus in culture; type: cell-based
[11] = Blood levels after single-dose oral administration, UV spectroscopy; type: in vivo, Sprague-Dawley rats; conditions: for concentration at 4 h / concentration at 8 h: Sprague-Dawley, rat, serum, oral, read-out: Blood Level of Compound (1), Mean
Description: The aim of this example was to establish absorption and blood levels of Compound (1) in the rat after a single-dose, oral administration.
Sprague-Dawley rats (6 w/o, delivered 30 Jan, 2001) were acclimatized for 6 days in the Animal Facility under standardized environmental conditions (22° C. ±3° C., rel hum 30-70%, artificial light, 12 hrs light/12 hrs dark). Rats were fed a conventional laboratory diet with food and water ad lib and caged 5 rats per cage.
Compound (1) was prepared as an aqueous suspension in sterile LPW. At higher concentrations the suspension was sonicated to reduce particle size sufficiently to pass through the gavage needle.
Compound (1) suspensions and the water control were administered at approx […], in a single. One control and five treatment rats were weighed immediately before each dose administration, the dose volume calculated and the dose delivered by gavage (22 gauge stainless steel, smooth-balled end attached to a syringe).
Approximately 100-200 μL of blood (microfuge tube) was removed from the tail at 4 and 8 hours. Tails were prewarmed using a heat lamp and snipped at the tip with a large scalpel. Blood was massaged into a microfuge tube. Twenty four hour blood samples were not attempted because of the difficulty of snipping scarred tails and the distress caused to rats.
Blood was allowed to clot, centrifuged in a microfuge for 3 minutes (speed 14) and the serum separated and stored at −20° C.
Samples for treatment groups and for controls were thus pooled and a mean level of Compound (1) for each treatment group determined.
Compound (1) was extracted (x2) from serum by toluene and absorbance measured at 370 nm (Hitachi U2000). A spiked control using 100 μg/mL Compound (1) in 50% methanol/water (V/V) and untreated controls were also assayed.

Aspergillus fumigatus = assay: M38-P microdilution MIC/MFC; type: cell-based; conditions: Table 16, 48 h, 35° C.
Fusarium graminearum [12] = assay: microbe, parasite or virus in culture; type: cell-based; conditions: 48 h
Microsporum gypseum = assay: M38-P microdilution MIC/MFC; type: cell-based; conditions: Table 16, Dermatophytes
[13] = tested on: clinical isolate of Trichomonas vaginalis; assay: microbe, parasite or virus in culture; type: cell-based
physchem = conditions: aqueous with cosolvent or surfactant or cyclodextrin
Staphylococcus aureus = assay: Rate of kill, viable counts
E. coli = assay: MIC by solvent of formulation; conditions: for MIC: Escherichia coli
[14] = tested on: Enterococcus faecalis museum strain; assay: Impregnated agar serial double dilutions; conditions: meat peptone agar
[15] = tested on: Klebsiella pneumoniae strain 312; assay: Impregnated agar serial double dilutions; conditions: meat peptone agar
Candida albicans = assay: Impregnated agar serial double dilutions; conditions: meat peptone agar
Salmonella typhimurium [16] = assay: Agar plug diffusion, zone of retardation; conditions: plug impregnated at 0.5%
[17] = tested on: Campylobacter jejuni 54/1-2; assay: MIC/MMC against clinical strains of Campylobacter spp.; conditions: Table 18; clinical strain isolated from humans

With C/C(=C\c1ccc2c(c1)OCO2)[N+](=O)[O-] [Compound (1)] the “Suppression of Growth (+/−)” value [1] was “+”, the “Suppression of Growth (+/−)” value (Shigella sonnei B-720) was “+” and the “Suppression of Growth (+/−)” value [2] was “+”. The “Suppression of Growth (+/−)” value (Acinetobacter B-677) was “+”, the “Suppression of Growth (+/−)” value [3] was “+” and the “Suppression of Growth (+/−)” value [4] was “+”. The “Suppression of Growth (+/−)” value [5] was “+”, the MIC (Mycobact tub. H.37RV) was 6.25 µg/mL (≈ 30.2 µM) and the MMC [6] was 32 µg/mL. For the same compound, the MMC ([6]; 35° C., 24 hours) was 32 µg/mL, the MIC ([6]; Enterococcus faecalis, 35° C., 24 hours) was 32 µg/mL (≈ 154 µM) and the MIC (Clostridium perfringens; Clostridium perfringens) was 16 µg/mL (≈ 77.2 µM). For the same compound, the MMC (Clostridium perfringens; Table 9) was 32 µg/mL, the MIC ([7]; Campylobacter jejuni, RMITFF3) was 2 µg/mL (≈ 9.65 µM) and the MMC [7] was 2 µg/mL. The MIC (Klebsiella pneumoniae; Table 9, 35° C., 24 hours) was 512 µg/mL (≈ 2470 µM), the MIC (Klebsiella pneumoniae; Table 17, 2 or 3 replicates) was 512 µg/mL (≈ 2470 µM) and the MMC (Klebsiella pneumoniae; Table 9, 35° C., 24 hours) was >512 µg/mL. The MMC (Klebsiella pneumoniae; Table 17, 2 or 3 replicates) was >512 µg/mL, the MIC (Salmonella typhimurium [8]; Salmonella enterica, TYPHIMURIUM, 24 h) was 256 µg/mL (≈ 1240 µM) and the MMC (Salmonella typhimurium [8]; Table 9, 35° C., 24 hours) was >512 µg/mL. The MIC ([9]; Table 9, 35° C., 24 hours) was > 512 µg/mL, the MIC ([9]; Table 17, 2 or 3 replicates) was > 512 µg/mL and the MMC ([9]; Table 9, 35° C., 24 hours) was >512 µg/mL. The MMC ([9]; Table 17, 2 or 3 replicates) was >512 µg/mL, the MIC (Fusarium graminearum [10]; Fusarium graminearum, 168 h) was 4 µg/mL (≈ 19.3 µM) and the MMC (Fusarium graminearum [10]; Table 10, 7 day, 30° C.) was 8 µg/mL. The “Blood Level of Compound (1), Mean” value ([11]; 1250 mg/kg, 4 + 8 h) was 27000 ng/mL, the concentration at 4 h ([11]; 500 mg/kg, 500 mg/kg fasted) was 12000 ng/mL and the concentration at 8 h ([11]; 500 mg/kg, 500 mg/kg fasted) was 14000 ng/mL. For the same compound, the concentration at 4 h ([11]; 500 mg/kg, 500 mg/kg fed) was 8000 ng/mL, the concentration at 8 h ([11]; 500 mg/kg, 500 mg/kg fed) was 17000 ng/mL and the concentration at 4 h ([11]; 1000 mg/kg, 1000 mg/kg fasted) was 26000 ng/mL. The concentration at 8 h ([11]; 1000 mg/kg, 1000 mg/kg fasted) was 21000 ng/mL, the “oral dose reaching the blood” value ([11]; absorption from the gastrointestinal tract) was “approximately 2%” and the MIC (Aspergillus fumigatus; Aspergillus fumigatus) was 8 µg/mL (≈ 38.6 µM). The MMC (Aspergillus fumigatus) was 32 µg/mL, the MIC (Fusarium graminearum [12]; Fusarium graminearum) was 4 µg/mL (≈ 19.3 µM) and the MMC (Fusarium graminearum [12]; Table 16, M38-P, 35° C.) was 8 µg/mL. For the same compound, the MIC (Microsporum gypseum; Nannizzia gypsea) was 1 µg/mL (≈ 4.83 µM), the MMC (Microsporum gypseum) was 8 µg/mL and the MMC [13] was 4 µg/mL. For the same compound, the MIC ([13]; Trichomonas vaginalis, 24 h) was 4 µg/mL (≈ 19.3 µM), the solubility (physchem) was 1000 µg/mL (≈ 4830 µM) and the “Log reduction in viable count” value (Staphylococcus aureus; 256 μg/mL, in 6 h) was 0.5 in 6 h. The “Log reduction in viable count” value (Staphylococcus aureus; 512 μg/mL, in 9 h) was 4 in 9 h, the “times more active in ethanol than in DMSO” value (E. coli) was “at least 8 times” and the MIC (E. coli; 2.5% DMSO) was > 512 µg/mL. For the same compound, the MIC (E. coli; formulated in ethanol (0.06% ETON)) was 128 µg/mL (≈ 618 µM), the “Minimal % Compound (1) giving complete inhibition of test culture” value [14] was 0.015% and the “Minimal % Compound (1) giving complete inhibition of test culture” value [15] was 0.12%. The “Minimal % Compound (1) giving complete inhibition of test culture” value (Candida albicans) was 0.5%, the “Size of zone of retardation of the growth” value (Salmonella typhimurium [16]) was 7 and the MMC [17] was 2.
